“Also recorded” adds a separate entry of the source. Active and inactive are the calls of the source. The rule behind the calls is not given here.
Tested on: CCRIS mutagenicity, Ames/micronucleus/aberration tests
Test: CCRIS mutagenicity studies

## CC/C(=C(/CC)c1ccc(O)cc1)c1ccc(O)cc1
End Point: IN VITRO CHROMOSOMAL ABERRATIONS, Test System: CHINESE HAMSTER CELL DON (22;XY), Metabolic Activation: NONE
  mutagenic call: active; positive (ploidy changes)
End Point: IN VITRO CHROMOSOMAL ABERRATIONS, Test System: HUMAN LYMPHOCYTES, Metabolic Activation: NONE, Method: FISH
  mutagenic call: active; positive (ploidy changes in chromosomes 1, 9, 16); also recorded: active; positive (ploidy changes in chromosomes 7 and 9)
End Point: IN VITRO CHROMOSOMAL ABERRATIONS, Test System: HUMAN PERIPHERAL LYMPHOCYTES, Metabolic Activation: NONE
  mutagenic call: inactive; negative
End Point: IN VITRO CHROMOSOMAL ABERRATIONS, Test System: SYRIAN HAMSTER EMBRYO (SHE) CELLS, Metabolic Activation: NONE
  mutagenic call: active; positive (ploidy changes)
End Point: IN VITRO MICRONUCLEUS, Test System: HUMAN PERIPHERAL LYMPHOCYTES, Metabolic Activation: NONE
  mutagenic call: active; positive
End Point: IN VITRO MICRONUCLEUS, Test System: V79 CELLS, Metabolic Activation: NONE
  mutagenic call: active; positive
Test System: AMES SALMONELLA TYPHIMURIUM, Strain/Indicator: TA97, Metabolic Activation: HAMSTER LIVER S-9, AROCLOR 1254 (10%), Method: PREINCUBATION
  mutagenic call: inactive; negative
Test System: AMES SALMONELLA TYPHIMURIUM, Strain/Indicator: TA97, Metabolic Activation: HAMSTER LIVER S-9, AROCLOR 1254 (30%), Method: PREINCUBATION
  mutagenic call: inactive; negative
Test System: AMES SALMONELLA TYPHIMURIUM, Strain/Indicator: TA97, Metabolic Activation: NONE, Method: PREINCUBATION
  mutagenic call: inactive; negative
Test System: AMES SALMONELLA TYPHIMURIUM, Strain/Indicator: TA97, Metabolic Activation: NONE, Method: STANDARD PLATE
  mutagenic call: inactive; negative
Test System: AMES SALMONELLA TYPHIMURIUM, Strain/Indicator: TA97, Metabolic Activation: RAT LIVER S-9, AROCLOR 1254 (10%), Method: PREINCUBATION
  mutagenic call: inactive; negative
Test System: AMES SALMONELLA TYPHIMURIUM, Strain/Indicator: TA97, Metabolic Activation: RAT LIVER S-9, AROCLOR 1254 (30%), Method: PREINCUBATION
  mutagenic call: inactive; negative
Test System: AMES SALMONELLA TYPHIMURIUM, Strain/Indicator: TA97, Metabolic Activation: RAT, LIVER, S-9, AROCLOR 1254, Method: STANDARD PLATE
  mutagenic call: inactive; negative
Test System: AMES SALMONELLA TYPHIMURIUM, Strain/Indicator: TA97, Metabolic Activation: S-9, Method: STANDARD PLATE
  mutagenic call: inactive; negative
Test System: AMES SALMONELLA TYPHIMURIUM, Strain/Indicator: TA98, Metabolic Activation: HAMSTER LIVER S-9, AROCLOR 1254 (10%), Method: PREINCUBATION
  mutagenic call: inactive; negative
Test System: AMES SALMONELLA TYPHIMURIUM, Strain/Indicator: TA98, Metabolic Activation: HAMSTER LIVER S-9, AROCLOR 1254 (30%), Method: PREINCUBATION
  mutagenic call: inactive; negative
Test System: AMES SALMONELLA TYPHIMURIUM, Strain/Indicator: TA98, Metabolic Activation: NONE, Method: PREINCUBATION
  mutagenic call: inactive; negative
Test System: AMES SALMONELLA TYPHIMURIUM, Strain/Indicator: TA98, Metabolic Activation: RAT LIVER S-9, AROCLOR 1254 (10%), Method: PREINCUBATION
  mutagenic call: inactive; negative
Test System: AMES SALMONELLA TYPHIMURIUM, Strain/Indicator: TA98, Metabolic Activation: RAT LIVER S-9, AROCLOR 1254 (30%), Method: PREINCUBATION
  mutagenic call: inactive; negative
Test System: AMES SALMONELLA TYPHIMURIUM, Strain/Indicator: TA98, Metabolic Activation: RAT, LIVER, S-9, AROCLOR 1254, Method: STANDARD PLATE
  mutagenic call: inactive; negative
Test System: AMES SALMONELLA TYPHIMURIUM, Strain/Indicator: TA98, Metabolic Activation: RAT, LIVER, S-9, Method: STANDARD PLATE
  mutagenic call: inactive; negative
Test System: AMES SALMONELLA TYPHIMURIUM, Strain/Indicator: TA98, Metabolic Activation: S-9, Method: STANDARD PLATE
  mutagenic call: inactive; negative
Test System: AMES SALMONELLA TYPHIMURIUM, Strain/Indicator: TA100, Metabolic Activation: HAMSTER LIVER S-9, AROCLOR 1254 (10%), Method: PREINCUBATION
  mutagenic call: inactive; negative
Test System: AMES SALMONELLA TYPHIMURIUM, Strain/Indicator: TA100, Metabolic Activation: HAMSTER LIVER S-9, AROCLOR 1254 (30%), Method: PREINCUBATION
  mutagenic call: inactive; negative
Test System: AMES SALMONELLA TYPHIMURIUM, Strain/Indicator: TA100, Metabolic Activation: NONE, Method: PREINCUBATION
  mutagenic call: inactive; negative
Test System: AMES SALMONELLA TYPHIMURIUM, Strain/Indicator: TA100, Metabolic Activation: RAT LIVER S-9, AROCLOR 1254 (10%), Method: PREINCUBATION
  mutagenic call: inactive; negative
Test System: AMES SALMONELLA TYPHIMURIUM, Strain/Indicator: TA100, Metabolic Activation: RAT LIVER S-9, AROCLOR 1254 (30%), Method: PREINCUBATION
  mutagenic call: inactive; negative
Test System: AMES SALMONELLA TYPHIMURIUM, Strain/Indicator: TA100, Metabolic Activation: RAT, LIVER, S-9, AROCLOR 1254, Method: STANDARD PLATE
  mutagenic call: inactive; negative
Test System: AMES SALMONELLA TYPHIMURIUM, Strain/Indicator: TA100, Metabolic Activation: RAT, LIVER, S-9, Method: STANDARD PLATE
  mutagenic call: inactive; negative; toxicity at 100 ug/plate
Test System: AMES SALMONELLA TYPHIMURIUM, Strain/Indicator: TA100, Metabolic Activation: S-9, Method: STANDARD PLATE
  mutagenic call: inactive; negative
Test System: AMES SALMONELLA TYPHIMURIUM, Strain/Indicator: TA102, Metabolic Activation: NONE, Method: STANDARD PLATE
  mutagenic call: inactive; negative
Test System: AMES SALMONELLA TYPHIMURIUM, Strain/Indicator: TA102, Metabolic Activation: S-9, Method: STANDARD PLATE
  mutagenic call: inactive; negative
Test System: AMES SALMONELLA TYPHIMURIUM, Strain/Indicator: TA1535, Metabolic Activation: HAMSTER LIVER S-9, AROCLOR 1254 (30%), Method: PREINCUBATION
  mutagenic call: inactive; negative
Test System: AMES SALMONELLA TYPHIMURIUM, Strain/Indicator: TA1535, Metabolic Activation: HAMSTER LIVER, S-9, AROCLOR 1254 (10%), Method: PREINCUBATION
  mutagenic call: inactive; negative
Test System: AMES SALMONELLA TYPHIMURIUM, Strain/Indicator: TA1535, Metabolic Activation: NONE, Method: PREINCUBATION
  mutagenic call: inactive; negative
Test System: AMES SALMONELLA TYPHIMURIUM, Strain/Indicator: TA1535, Metabolic Activation: RAT LIVER S-9, AROCLOR 1254 (10%), Method: PREINCUBATION
  mutagenic call: inactive; negative
Test System: AMES SALMONELLA TYPHIMURIUM, Strain/Indicator: TA1535, Metabolic Activation: RAT LIVER S-9, AROCLOR 1254 (30%), Method: PREINCUBATION
  mutagenic call: inactive; negative
Test System: AMES SALMONELLA TYPHIMURIUM, Strain/Indicator: TA1535, Metabolic Activation: RAT, LIVER, S-9, AROCLOR 1254, Method: STANDARD PLATE
  mutagenic call: inactive; negative
Test System: AMES SALMONELLA TYPHIMURIUM, Strain/Indicator: TA1535, Metabolic Activation: RAT, LIVER, S-9, Method: STANDARD PLATE
  mutagenic call: inactive; negative; toxicity at 50 and 100 ug/plate
Test System: AMES SALMONELLA TYPHIMURIUM, Strain/Indicator: TA1537, Metabolic Activation: RAT, LIVER, S-9, AROCLOR 1254, Method: STANDARD PLATE
  mutagenic call: inactive; negative
Test System: AMES SALMONELLA TYPHIMURIUM, Strain/Indicator: TA1537, Metabolic Activation: RAT, LIVER, S-9, Method: STANDARD PLATE
  mutagenic call: inactive; negative
Test System: AMES SALMONELLA TYPHIMURIUM, Strain/Indicator: TA1538, Metabolic Activation: NONE, Method: STANDARD PLATE
  mutagenic call: inactive; negative
Test System: AMES SALMONELLA TYPHIMURIUM, Strain/Indicator: TA1538, Metabolic Activation: RAT, LIVER, S-9, AROCLOR 1254, Method: STANDARD PLATE
  mutagenic call: inactive; negative
Test System: AMES SALMONELLA TYPHIMURIUM, Strain/Indicator: TA1538, Metabolic Activation: RAT, LIVER, S-9, Method: STANDARD PLATE
  mutagenic call: inactive; negative
Test System: E. COLI, Strain/Indicator: WP2 UVRA, Metabolic Activation: HAMSTER, LIVER, S-9, AROCLOR 1254, Method: STANDARD PLATE
  mutagenic call: inactive; negative
Test System: E. COLI, Strain/Indicator: WP2 UVRA, Metabolic Activation: HAMSTER, LIVER, S-9, Method: STANDARD PLATE
  mutagenic call: inactive; negative
Test System: E. COLI, Strain/Indicator: WP2 UVRA, Metabolic Activation: MOUSE, LIVER, S-9, AROCLOR 1254, Method: STANDARD PLATE
  mutagenic call: inactive; negative
Test System: E. COLI, Strain/Indicator: WP2 UVRA, Metabolic Activation: MOUSE, LIVER, S-9, Method: STANDARD PLATE
  mutagenic call: inactive; negative
Test System: E. COLI, Strain/Indicator: WP2 UVRA, Metabolic Activation: NONE, Method: STANDARD PLATE
  mutagenic call: inactive; negative
Test System: E. COLI, Strain/Indicator: WP2 UVRA, Metabolic Activation: RAT, LIVER, S-9, AROCLOR 1254, Method: STANDARD PLATE
  mutagenic call: inactive; negative
Test System: E. COLI, Strain/Indicator: WP2 UVRA, Metabolic Activation: RAT, LIVER, S-9, Method: STANDARD PLATE
  mutagenic call: inactive; negative
Test System: MOUSE LYMPHOMA, Strain/Indicator: L5178Y (TK+/+)/OUABAIN, Metabolic Activation: NONE, Method: SUSPENSION/PLATE
  mutagenic call: inactive; negative
Test System: MOUSE LYMPHOMA, Strain/Indicator: L5178Y (TK+/+)/OUABAIN, Metabolic Activation: RAT LIVER S-9, AROCLOR 1254, Method: SUSPENSION/PLATE
  mutagenic call: active; positive
Test System: MOUSE LYMPHOMA, Strain/Indicator: L5178Y (TK+/-)/TRIFLUROTHYMIDINE, Metabolic Activation: NONE, Method: SUSPENSION/PLATE
  mutagenic call: inactive; negative
Test System: MOUSE LYMPHOMA, Strain/Indicator: L5178Y (TK+/-)/TRIFLUROTHYMIDINE, Metabolic Activation: RAT LIVER S-9, AROCLOR 1254, Method: SUSPENSION/PLATE
  mutagenic call: active; positive
Test System: MOUSE LYMPHOMA, Strain/Indicator: L5178Y (TK+/TK-), Metabolic Activation: NONE, Method: MICROWELL
  mutagenic call: inactive; negative
Test System: MOUSE LYMPHOMA, Strain/Indicator: L5178Y (TK+/TK-), Metabolic Activation: S-9, Method: MICROWELL
  mutagenic call: active; positive
Test System: UDS RAT HEPATOCYTES, Strain/Indicator: THY INCORP (18-20 HR), Metabolic Activation: NONE, Method: LIQUID SCINTILLATION COUNTING
  mutagenic call: inactive; negative
Test System: UDS RAT HEPATOCYTES, Strain/Indicator: THY INCORP, Metabolic Activation: NONE, Method: LIQUID SCINTILLATION COUNTING
  mutagenic call: inactive; negative
